One compound from patent US11193136B2, “Cellulose synthase inhibitors and mutant plants” (VIB VZW, priority 2016, dated 2021) can be followed below.

The subject of assay [1] is ixr1-1, ixr1-2, and ixr2-1 mutants. Nature of the assay: Sensitivity of isoxaben resistant mutants to C17. Type of assay: in vivo, Arabidopsis. As to conditions: 200 nM C17, 3 days. An excerpt: To date, several cellulose synthase inhibitors have been reported. In terms of molecular structure, the C17 compound differs completely from any known cellulose inhibitor.
For studying the growth inhibitory effects of C17 on plants, wild type and C17 resistant mutants were germinated on half MS medium (Murashige and Skoog, 1962) supplemented with or without indicated levels of C17 or its analogs. Seven-day-old seedlings were photographed. For observation of the root structure, five-day-old Arabidopsis seedlings were transferred to half MS medium containing different dosages of C17. After a three-day treatment, seedlings were photographed and their root tips were stained with propidium iodide (PI), a fluorescent dye that is excluded from the membranes of healthy cells but penetrates the plasma membrane of dead cells. The stained root tips were visualized by confocal laser scanning microscopy (LSM710, ZEISS). The ixr1-1 (collection number CS6201), ixr1-2 (CS6202) and ixr2-1 (CS6203) mutants were acquired from the ABRC. Five-day-old Arabidopsis seedlings were transferred to half MS medium with or without 200 nM C17. After 3 day, the plants were photographed.

The test system of assay [2] is Arabidopsis root elongation zone. The assay is described as follows: Detection of cell wall weakening by PI uptake under gentle pressure on the root. The class given is in vivo. The procedure: Because the cellulose synthesized by the CESA1/CESA3 complex is a primary cell wall component, it was expected that C17-treated plants would display a weaker cell wall, which can be visualized by the uptake of propidium iodide (PI) following the application of a gentle pressure on the root.
For the detection of cell wall weakening, 3-day-old seedlings grown on half-strength MS medium were transferred to liquid medium without or with 200 nM C17. The root tips were stained with […] mL^−1 prodium iodide for three min. The stained root tips were put on the Nunc™ Lab-Tek™ Chambered Coverglass (Catalog #155361) without pressure or microscope slide with cover slip that gave a gentle exerting of pressure. By using confocal laser scanning microscopy (LSM710, ZEISS), the brittle cells could be visualized by the uptake of PI.

The test system of assay [3] is wild type Arabidopsis (Col-0). Nature of the assay: Growth of Arabidopsis seedlings on half MS medium with C17 or analogues. As to conditions: 200 nM. The class given is in vivo. The procedure:
(§1) C17 (5-(4-chlorophenyl)-7-(2-methoxyphenyl)-1,5,6,7-tetrahydro-[1,2,4]triazolo[1,5-a]pyrimidine; ChemDiv, Catalogue #: 7693622), a synthetic molecule, was identified from a chemical screen as a ploidy-inducing compound in Arabidopsis protoplasts. To test the effects of C17 on plants, Arabidopsis seeds were plated on half MS medium (Murashige, T. and F. Skoog, 1962) in the presence or absence of 200 nM C17 or its analogues. […] To dissect the C17 inhibitory effects, we employed confocal laser scanning microscopy (LSM710, ZEISS) to observe the root structure. Five-day-old Arabidopsis seedlings grown on vertical plates were transferred to half MS medium containing C17 for further growth. After three-day treatment, the root tips were analysed. Consistent to its growth inhibitory activity, C17 caused cell death at a concentration as little as 25 nM (FIG. 2). At the lowest concentration applied, root cortical cells of the transition zone were affected. This phenotype was aggravated and expanded to other tissues with an increasing dosage of C17 (FIG. 2).
(§2) For studying the growth inhibitory effects of C17 on plants, wild type and C17 resistant mutants were germinated on half MS medium (Murashige and Skoog, 1962) supplemented with or without indicated levels of C17 or its analogs. Seven-day-old seedlings were photographed. […]

A further assay has as its system Arabidopsis root. Nature of the assay: Root structure and cell death by propidium iodide staining and confocal microscopy. The class given is in vivo. On the procedure:
as §1, §2

Where only a bound is given, the exact number is not on record here.

For `COc1ccccc1C1CC(c2ccc(Cl)cc2)N=C2N=CNN21` (stereo not drawn) [C17, 5-(4-chlorophenyl)-7-(2-methoxyphenyl)-1,5,6,7-tetrahydro-[1,2,4]triazolo[1,5-a]pyrimidine], in assay [1], the “sensitivity of isoxaben resistant mutants (ixr1-1, ixr1-2, ixr2-1)” value is given as “still sensitive”. Besides, the “PI uptake and growth inhibition in C17-tolerant mutants” value in assay [2] (200 nM C17, C17-tolerant mutants) was “No PI-positive cells and growth inhibition”. For the same compound, the “time to cell wall weakening in the root elongation zone” value in assay [2] (200 nM C17, wild type, PI uptake) was no more than 2 h. Also, the “effect on plant growth” value in assay [3] is recorded as “severe growth inhibition accompanied by radial swelling of the root tip”. In the assay with Arabidopsis root (100 nM C17, three-day treatment), the cell elongation phenotype result is given as “radical rather than polar cell elongation”. For the same compound, the “concentration causing cell death in the root” value in the assay on Arabidopsis root (five-day-old seedlings, three-day treatment, lowest concentration applied) was 25 nM.
